Assays:
[1] = in vivo, cited from earlier work
[2] = Determination of suramin in plasma and brain tissue of mice after IP or IN administration; type: in vivo, male Fmr1-knockout B6.129P2-Fmr1tm1Cgr/J TG mice; settings: male, Fmr1-knockout B6.129P2-Fmr1tm1Cgr/J, mouse, Group 1: IP injection 20 mg/kg weekly for four weeks, read-out: Average Brain Tissue to Plasma Partitioning Ratio
Description: For the study, male Fmr1-knockout B6.129P2-Fmr1tm1Cgr/J TG mice were purchased from Jackson Laboratories, Bar Harbor, Me. These mice were of approximately 8 weeks of age.
Mice were accommodated to the research facility for approximately a week. Body weights of all mice were recorded for health monitoring purposes.
Blood samples were collected from all mice at the end of 12 weeks of age. Brain tissue was harvested from all mice upon sacrifice 13-14 weeks of age. Standard sample preparation and analytical techniques were used to obtain the data.
The data is presented as the average plasma concentration (in both ng/ml and μM) for each animal group the and average brain tissue concentration (in both ng/g and mmol/g). Also presented is the average brain tissue to plasma partition ratio for each group.

Q: What does the source list for `Cc1ccc(C(=O)Nc2ccc(S(=O)(=O)O)c3cc(S(=O)(=O)O)cc(S(=O)(=O)O)c23)cc1NC(=O)c1cccc(NC(=O)Nc2cccc(C(=O)Nc3cc(C(=O)Nc4ccc(S(=O)(=O)O)c5cc(S(=O)(=O)O)cc(S(=O)(=O)O)c45)ccc3C)c2)c1` [suramin]?
A: oral bioavailability ([1]; po): not orally bioavailable; half-life [1]: 41 to 78 days; Kp [2]: 0.03

Reference: patent US20220226268A1, “COMPOSITIONS AND METHODS FOR TREATING CENTRAL NERVOUS SYSTEM DISORDERS” (PaxMedica, Inc., priority 2019, published 2022)
